Test results published in US8895503B2, “Pharmaceutical composition for transnasal administration of peptide hormones or cytokines” (Toray Industries, Inc., priority 2008, dated 2014).
Where no end group is shown, it is not given here.

Tests used:
[1] = Nasal administration of insulin with peptides of SEQ ID NOs:1 to 6 (Example 5); conditions: for AAC: blood glucose reduction
Text: The prepared solutions were subjected to the evaluation in the same manner as in Example 1.

[2] = Nasal administration of insulin with peptide to rats (Example 1); assay type: in vivo, rat; conditions: male SD rats, insulin 10 IU/kg with 0.5 mM peptide or insulin only
Protocol: (§1) Male SD rats having a body weight of about 200 g were fasted for 24 hours and anesthetized by intraperitoneal injection of 50 mg/kg of pentobarbital, followed by incision of the cervical part to expose trachea. […] The tip of the tube to be inserted into the choanae was preliminarily tightly sealed with absorbent cotton and an adhesive. To prevent leakage of the drug solution, the nasopalatine duct in maxilla opening into the oral cavity was closed with a synthetic adhesive (Aron Alpha A; manufactured by Daiichi Sankyo Company, Limited).

[3] = Nasal administration of insulin, dependency on peptide concentration (Example 2); conditions: rats, only insulin, no peptide
Protocol: as §1

[4] = rats, nasal, insulin 1 IU/kg with 0.5 mM L-amino acid peptide or no peptide
[5] = male, SD, rat, in vivo, inhaled or intranasal
[6] = blood insulin, rats, nasal, insulin 1 IU/kg with 0.5 mM L-amino acid peptide or no peptide

Row | Compound | AAC [1, 4] | Tmax [1, 5] | PA (pharmaceutical availability, based on changes in blood glucose level) [1, 4] | blood insulin level (FIG. 1) [2] | bioavailability (BA) of insulin ([2]; vs subcutaneous insulin) | AUC [1, 6] | Tmax [1, 6] | BA (bioavailability, based on changes in blood insulin level) [1, 4] | increase in the blood insulin level (FIG. 8) [1, 4] | bioavailability of insulin [3] | Cmax [1, 6]
1 | KKWKMRRNQFWIKIQR-OH [SEQ ID NO: 2] | 13.5 % glu. reduc. h | 11.7 min | 14.7% | – | – | – | – | – | – | – | –
2 | insulin [reference compound] | 4.3 % glu. reduc. h | – | 4.7% | hardly exhibited increase in the blood insulin level | 0.8% | 6.4 μU · h./mL | 10.8 min | 2.3% | could be hardly observed | 1.7% | –
3 | KQIRIWFQNKKMRWRR-OH [SEQ ID NO: 5] | 21.5 % glu. reduc. h | 16.0 min | 23.4% | – | – | – | – | – | – | – | –
4 | KQIKIWFQNKKMKWKK-OH [SEQ ID NO: 4] | 10.3 % glu. reduc. h | 11.3 min | 11.2% | – | – | – | – | – | – | – | –
5 | CC[C@H](C)[C@H](NC(=O)[C@H](CCCCN)NC(=O)[C@@H](NC(=O)[C@H](CCC(N)=O)NC(=O)[C@@H](N)CCCNC(=N)N)[C@@H](C)CC)C(=O)N[C@@H](Cc1c[nH]c2ccccc12)C(=O)N[C@@H](Cc1ccccc1)C(=O)N[C@@H](CCC(N)=O)C(=O)N[C@@H](CC(N)=O)C(=O)N[C@@H](CCCNC(=N)N)C(=O)N[C@@H](CCCNC(=N)N)C(=O)N[C@@H](CCSC)C(=O)N[C@@H](CCCCN)C(=O)N[C@@H](Cc1c[nH]c2ccccc12)C(=O)N[C@@H](CCCCN)C(=O)N[C@@H](CCCCN)C(=O)N[C@@H](CCCNC(=N)N)C(=O)N[C@@H](CCCNC(=N)N)C(=O)N[C@@H](CCCNC(=N)N)C(=O)N[C@@H](CCCNC(=N)N)C(=O)O [SEQ ID NO: 6] | 14.4 % glu. reduc. h | – | 15.7% | – | – | 55.2 μU · h./mL | – | – | – | – | 187.3 μU/mL
6 | RQIRIWFQNRRMRWRR-OH [SEQ ID NO: 3] | 17.1 % glu. reduc. h | 18.3 min | 18.6% | – | – | – | – | – | – | – | –
